Data as given in patent US20210221866A1, “PROTEASE-RESISTANT LIPIDATED GLP-1 ANALOGS” (MEDIMMUNE LIMITED, priority 2015, published 2021).
Like-named read-outs stand apart in the source and are kept apart here. Numbered stars: 1 amine (or outer) side, 2 acyl side, 3 side chain; on linkers, the order of the positions; unused ones are H or OH. Square brackets hold non-standard residues; d marks the D form. Side chains are listed from the residue outwards. Peptide text beside a SMILES is read from it. * marks the point of attachment. γGlu = O=C(O)[C@H](CCC(=O)[*:2])N[*:1]; αMeF = C[C@](N)(Cc1ccccc1)C(=O)O; αMeK = C[C@](N)(CCCCN)C(=O)O; Lauroyl = CCCCCCCCCCCC(=O)*; αMeS = C[C@](N)(CO)C(=O)O; Nle = CCCC[C@H](N)C(=O)O; AEEA = NCCOCCOCC(=O)O; Aib = CC(C)(N)C(=O)O

Experiments:
recombinant Neprilysin = target: T1, recombinant Neprilysin (Homo sapiens, UniProt P08473); test: Proteolytic resistance to neprilysin (% remaining peptide, RP-HPLC AUC); assay type: in vitro ADME; conditions: t = 0 (baseline); 37° C., pH 8.3; enzyme:peptide ~1:33 for non-lipidated, ~1:2.5 for lipidated peptides
T1 construct: purchased R&D Systems 1182-ZNC-010
Procedure: Ratio enzyme (units):peptide (moles) ˜1:33. […] Ratio enzyme (units):peptide (moles) ˜1:2.5.
15 μL aliquots (˜15 ng initial peptide) of the peptide-enzyme mixture were periodically withdrawn (t=0, 30 mins, 1 hr, 2 hr, 4 hr, 8 hr, 24 hr) and quenched immediately by addition to an equal volume (15 μL) of 5% TFA (v/v) in 1:1 water/acetonitrile to arrest proteolytic activity. 20 μL aliquots (˜10 ng initial peptide) were analyzed by LC/MS and/or analytical RP-HPLC as follows: LC/MS method: Agilent Polaris C8-A column (4.6×100 mm, 3 micron) eluted with a linear binary gradient of 10-90% MeCN (0.1% TFA v/v) in water (0.1% TFA v/v) over 30 mins at 1.5 mL min-1 at ambient temperature with detection by both UV absorption at 210 nm and ionization using a Waters 3100 mass detector (ESI+ mode). Peptide fragments deriving from enzymatic hydrolysis were identified by molecular weight, allowing location of the site of cleavage. Analytical RP-HPLC method: Agilent Polaris C8-A column (4.6×100 mm, 3 micron) eluted with a linear binary gradient of 10-90% MeCN (0.1% TFA v/v) in water (0.1% TFA v/v) over either 10 or 15 mins at 1.5 mL min^−1 at 40° C. with detection by UV absorption at 210 nm. Manual integration (AUC) allowed estimation of remaining intact peptide over the time course of the experiment.
25 μL aliquots (˜6 μg initial peptide) were analyzed by LC/MS and/or analytical RP-HPLC as follows: LC/MS method: Agilent Polaris C8-A column (4.6×100 mm, 3 micron) eluted with a linear binary gradient of 10-90% MeCN (0.1% TFA v/v) in water (0.1% TFA v/v) over 30 mins at 1.5 mL min^−1 at ambient temperature with detection by both UV absorption at 210 nm and ionization using a Waters 3100 mass detector (ESI^+ mode). Peptide fragments deriving from enzymatic hydrolysis were identified by molecular weight, allowing location of the site of cleavage. Analytical RP-HPLC method: Agilent Polaris C8-A column (4.6×100 mm, 3 micron) eluted with a linear binary gradient of 10-90% MeCN (0.1% TFA v/v) in water (0.1% TFA v/v) over either 10 or 15 mins at 1.5 mL min^−1 at 40° C. with detection by UV absorption at 210 nm. Manual integration (AUC) allowed estimation of remaining intact peptide over the time course of the experiment.

[1] = target: T2, porcine pancreatic pepsin (Sus scrofa, UniProt P00791); test: Proteolytic resistance to pepsin (% remaining intact peptide, RP-HPLC AUC); assay type: in vitro ADME; conditions: t = 0; 37° C., pH 2.0
T2 construct: purchased Sigma P7012
Procedure: Pepsin: Lyophilized porcine pancreatic pepsin (Sigma: P7012) was reconstituted to afford a solution of 200 μg/mL (˜500 units/mL) in assay buffer (0.1 M HCl, pH 2.0) to give the enzyme stock solution. […] Ratio enzyme (units):peptide (moles) ˜1:6. […] Ratio enzyme (units):peptide (μmoles) ˜2:1.
Lyophilized porcine pancreatic pepsin (Sigma: P7012) was reconstituted to […] (˜500 units/mL) in assay buffer ([…], pH 2.0) to give the enzyme stock solution.

[2] = target: T3, human glucagon receptor (GCGR) (Homo sapiens, UniProt P47871); test: cAMP assay, human GCGR cells; assay type: cell-based; conditions: Table 9, bis-lipidated peptides
T3 construct: expressed in transfected cells; host or cells: HEK293 cells or CHO cells
How it was run: (§1)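 Peptide-stimulated cAMP measured by two-step HTRF after a 30 min room-temperature incubation with receptor-expressing cells (hGLP-1R, hGIPR at 1×10^5 cells/ml; hGCGR at 2×10^5 cells/ml). Duplicate dilutions; EC50 from 4-parameter logistic fit of % Delta F.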

[3] = target: porcine pancreatic trypsin (Sus scrofa, UniProt P00761); test: Proteolytic resistance to trypsin (% remaining intact peptide, RP-HPLC AUC); assay type: in vitro ADME; conditions: t = 0; 37° C., pH 7.8
Procedure: Trypsin: Lyophilized porcine pancreatic trypsin (Sigma: T1426) was reconstituted to afford a solution of 100 μg/mL (˜300 units/mL) in assay buffer (50 mM Tris, 10 mM CaCl2), 150 mM NaCl, 1 mM HCl, adjusted to pH 7.8) to give the enzyme stock solution. […] Ratio enzyme (units):peptide (μmoles) ˜1:11. […] Ratio enzyme (units):peptide (μ moles) ˜1.2:1.
Lyophilized porcine pancreatic trypsin (Sigma: T7409) was reconstituted to 200 μg/mL (˜300 units/mL) in assay buffer (50 mM Tris, 10 mM CaCl2), 150 mM NaCl, 1 mM HCl, adjusted to pH 7.8) to give the enzyme stock solution. […] 15 μL aliquots (˜15 μg initial peptide) of the peptide-enzyme mixture were periodically withdrawn (t=0, 30 mins, 1 hr, 2 hr, 4 hr, 8 hr, 24 hr) and quenched immediately by addition to an equal volume (15 μL) of 5% TFA (v/v) in 1:1 water/acetonitrile to arrest proteolytic activity. 20 μL aliquots (˜10 μg initial peptide) were analysed by LC/MS and/or analytical RP-HPLC as follows: LC/MS method: Agilent Polaris C8-A column (4.6×100 mm, 3 micron) eluted with a linear binary gradient of 10-90% MeCN (0.1% TFA v/v) in water (0.1% TFA v/v) over 30 mins at 1.5 mL min^−1 at ambient temperature with detection by both UV absorption at 210 nm and ionization using a Waters 3100 mass detector (ESI^+ mode). Peptide fragments deriving from enzymatic hydrolysis were identified by molecular weight, allowing location of the site of cleavage. Analytical RP-HPLC method: Agilent Polaris C8-A column (4.6×100 mm, 3 micron) eluted with a linear binary gradient of 10-90% MeCN (0.1% TFA v/v) in water (0.1% TFA v/v) over either 10 or 15 mins at 1.5 mL min^−1 at 40° C. with detection by UV absorption at 210 nm. Manual integration (AUC) allowed estimation of remaining intact peptide over the time course of the experiment.
Lyophilized porcine pancreatic trypsin (Sigma: T7409) was reconstituted to 200 μg/mL (˜300 units/mL) in assay buffer (50 mM Tris, 10 mM CaCl2), 150 mM NaCl, 1 mM HCl, adjusted to pH 7.8) to give the enzyme stock solution. […] 25 μL aliquots (˜17 μg initial peptide) of the peptide-enzyme mixture were periodically withdrawn (t=0, 30 mins, 1 hr, 2 hr, 4 hr, 8 hr, 24 hr) and quenched immediately by addition to an equal volume (25 μL) of 5% TFA (v/v) in 1:1 water/acetonitrile to arrest proteolytic activity. 25 μL aliquots (˜8 μg initial peptide) were analysed by LC/MS and/or analytical RP-HPLC as follows: LC/MS method: Agilent Polaris C8-A column (4.6×100 mm, 3 micron) eluted with a linear binary gradient of 10-90% MeCN (0.1% TFA v/v) in water (0.1% TFA v/v) over 30 mins at 1.5 mL min^−1 at ambient temperature with detection by both UV absorption at 210 nm and ionization using a Waters 3100 mass detector (ESI^+ mode). Peptide fragments deriving from enzymatic hydrolysis were identified by molecular weight, allowing location of the site of cleavage. Analytical RP-HPLC method: Agilent Polaris C8-A column (4.6×100 mm, 3 micron) eluted with a linear binary gradient of 10-90% MeCN (0.1% TFA v/v) in water (0.1% TFA v/v) over either 10 or 15 mins at 1.5 mL min^−1 at 40° C. with detection by UV absorption at 210 nm. Manual integration (AUC) allowed estimation of remaining intact peptide over the time course of the experiment.

[4] = test system: FASSIF/Pancreatin® activated with 100 μg/mL human enterokinase; test: Proteolytic resistance to FASSIF/Pancreatin following full zymogen activation with enterokinase; assay type: in vitro ADME; conditions: t = 0; 37° C.
Procedure: A fresh suspension of FASSIF/P (Fasted-State Simulated Intestinal Fluid+USP Pancreatin®) was prepared according to that described by Galia, Nicolaides, Hörter, Lobenberg, Reppas and Dressman: Pharm. […] To the resulting preparation was added human enterokinase (100 μg/mL) to ensure the potential for full zymogen activity of the mixture which was used immediately without storage. Peptides for evaluation (1.0 mg, ˜250 nmoles) were initially dissolved in pre-warmed FASSIF without Pancreatin® (200 μL) to which was added pre-warmed fresh FASSIF/Pancreatin® ([…]) to initiate potential digestion. Following momentary vortexing of the Eppendorf reaction tube the mixture was incubated at 37° C. in a thermostatic waterbath for the duration of the experiment. 25 μL aliquots of the co-incubated peptide-enzyme mixture were periodically withdrawn (t=0, 5 m, 10 m, 15 m, 30 m, 1 h, 2 h) and quenched immediately by addition to a solution of 10% TFA in 1:1 water/acetonitrile (75 μL) to arrest proteolytic activity.

[5] = Proteolytic resistance to α-chymotrypsin (% remaining intact peptide, RP-HPLC AUC); conditions: recombinant α-chymotrypsin in assay buffer, pH 7.8
[6] = test system: recombinant α-chymotrypsin; test: as above; conditions: t = 0; 37° C., pH 7.8
[7] = target: T4, human glucose-dependent insulinotropic peptide receptor (GIPR) (Homo sapiens, UniProt P48546); test: cAMP assay, human GIPR cells; assay type: cell-based; conditions: Table 9, bis-lipidated peptides
T4 construct: expressed in transfected cells; host or cells: HEK293 cells or CHO cells
T4 sequence (P48546 22-466): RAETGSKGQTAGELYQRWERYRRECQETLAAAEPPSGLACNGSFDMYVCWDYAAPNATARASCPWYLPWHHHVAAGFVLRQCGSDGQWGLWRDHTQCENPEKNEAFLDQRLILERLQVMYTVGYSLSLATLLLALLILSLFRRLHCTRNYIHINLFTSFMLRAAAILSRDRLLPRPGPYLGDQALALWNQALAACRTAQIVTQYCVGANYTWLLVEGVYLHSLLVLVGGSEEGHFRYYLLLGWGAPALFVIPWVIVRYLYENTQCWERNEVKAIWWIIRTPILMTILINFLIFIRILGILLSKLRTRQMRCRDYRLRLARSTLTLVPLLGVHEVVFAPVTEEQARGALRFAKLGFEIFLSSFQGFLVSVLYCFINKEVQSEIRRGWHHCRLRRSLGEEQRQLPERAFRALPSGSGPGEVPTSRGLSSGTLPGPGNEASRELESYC
How it was run: as §1

[8] = target: T5, human GLP-1 receptor (GLP-1R) (Homo sapiens, UniProt P43220); test: cAMP assay, human GLP-1R cells; assay type: cell-based; conditions: Table 9, bis-lipidated peptides
T5 construct: expressed in transfected cells; host or cells: HEK293 cells or CHO cells
How it was run: as §1

[9] = Proteolytic resistance to fasted-state simulated intestinal fluid (FASSIF/Pancreatin); assay type: in vitro ADME; conditions: 37° C., read-out: Percentage remaining intact peptide (AUC by RP-HPLC) upon incubation with fasted-state simulated intestinal fluid (FASSIF/P)
Procedure: (§2) A fresh suspension of FASSIF/P (Fasted-State Simulated Intestinal Fluid+USP Pancreatin®) was prepared according to that described by Galia, Nicolaides, Hörter, Lobenberg, Reppas and Dressman: Pharm. Res. 15 (1998) 698-705. The resulting preparation is proteolytically equivalent to ˜375 units/mL (375 kU/L) and was used immediately without storage. Peptides for evaluation (1.0 mg, ˜250 nmoles) were initially dissolved in pre-warmed FASSIF without Pancreatin® (200 μL) to which was added pre-warmed fresh FASSIF/Pancreatin® (100 μL) to initiate potential digestion. Following momentary vortexing of the Eppendorf reaction tube the mixture was incubated at 37° C. in a thermostatic waterbath for the duration of the experiment. 25 μL aliquots of the co-incubated peptide-enzyme mixture were periodically withdrawn (t=0, 5 m, 10 m, 15 m, 30 m, 1 h, 2 h) and quenched immediately by addition to a solution of 10% TFA in 1:1 water/acetonitrile (75 μL) to arrest proteolytic activity.

[10] = test system: FASSIF/P (Fasted-State Simulated Intestinal Fluid+USP Pancreatin®); test: as above; assay type: in vitro ADME; conditions: t = 0; 37° C.
Procedure: as §2

[11] = first replicate, read-out: Primary assay EC50 Gluc-R (n1)
[12] = second replicate, read-out: Primary assay EC50 Gluc-R (n2)
[13] = first replicate, read-out: Primary assay EC50 GIP-R (n1)
[14] = second replicate, read-out: Primary assay EC50 GIP-R (n2)

T3 sequence (P47871 26-477): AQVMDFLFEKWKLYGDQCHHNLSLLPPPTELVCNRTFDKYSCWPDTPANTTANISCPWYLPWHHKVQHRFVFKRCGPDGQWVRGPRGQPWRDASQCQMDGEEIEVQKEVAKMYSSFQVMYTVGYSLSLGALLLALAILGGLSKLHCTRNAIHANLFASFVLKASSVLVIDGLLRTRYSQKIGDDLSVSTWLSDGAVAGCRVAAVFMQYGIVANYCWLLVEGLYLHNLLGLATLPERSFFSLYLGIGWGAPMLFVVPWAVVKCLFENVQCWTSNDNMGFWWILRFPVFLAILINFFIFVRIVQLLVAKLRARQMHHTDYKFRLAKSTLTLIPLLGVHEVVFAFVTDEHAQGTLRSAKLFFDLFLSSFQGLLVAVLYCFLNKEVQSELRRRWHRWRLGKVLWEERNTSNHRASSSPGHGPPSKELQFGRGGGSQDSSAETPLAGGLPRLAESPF
T5 sequence (P43220 24-463): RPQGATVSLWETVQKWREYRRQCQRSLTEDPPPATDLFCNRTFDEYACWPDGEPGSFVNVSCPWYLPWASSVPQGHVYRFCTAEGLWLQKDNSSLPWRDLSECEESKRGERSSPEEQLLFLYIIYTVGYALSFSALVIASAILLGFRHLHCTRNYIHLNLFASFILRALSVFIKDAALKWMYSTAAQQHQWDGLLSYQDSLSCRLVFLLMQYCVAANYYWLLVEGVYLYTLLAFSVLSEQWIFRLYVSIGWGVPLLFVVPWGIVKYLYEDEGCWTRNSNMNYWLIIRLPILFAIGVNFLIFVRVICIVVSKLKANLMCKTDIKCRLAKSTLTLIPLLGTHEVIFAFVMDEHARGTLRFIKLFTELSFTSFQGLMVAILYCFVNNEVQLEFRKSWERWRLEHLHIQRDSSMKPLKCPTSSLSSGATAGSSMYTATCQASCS
Sequence of porcine pancreatic trypsin (P00761 9-231): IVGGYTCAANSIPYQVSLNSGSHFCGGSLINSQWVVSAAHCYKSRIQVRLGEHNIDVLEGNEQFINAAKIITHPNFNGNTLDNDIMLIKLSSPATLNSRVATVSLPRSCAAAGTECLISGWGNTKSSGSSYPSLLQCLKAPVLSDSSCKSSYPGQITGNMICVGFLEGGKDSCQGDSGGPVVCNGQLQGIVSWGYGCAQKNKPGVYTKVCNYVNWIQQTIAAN
T2 sequence (P00791 60-385): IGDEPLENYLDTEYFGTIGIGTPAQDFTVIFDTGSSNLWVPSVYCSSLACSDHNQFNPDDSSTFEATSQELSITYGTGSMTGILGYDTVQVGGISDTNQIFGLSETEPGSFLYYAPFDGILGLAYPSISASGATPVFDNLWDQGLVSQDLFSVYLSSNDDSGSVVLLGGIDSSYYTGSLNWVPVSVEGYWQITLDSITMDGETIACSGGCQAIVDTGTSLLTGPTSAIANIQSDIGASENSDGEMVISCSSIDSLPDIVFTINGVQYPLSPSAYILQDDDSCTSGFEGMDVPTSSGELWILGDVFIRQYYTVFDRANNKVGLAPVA
T1 sequence (P08473 whole entry): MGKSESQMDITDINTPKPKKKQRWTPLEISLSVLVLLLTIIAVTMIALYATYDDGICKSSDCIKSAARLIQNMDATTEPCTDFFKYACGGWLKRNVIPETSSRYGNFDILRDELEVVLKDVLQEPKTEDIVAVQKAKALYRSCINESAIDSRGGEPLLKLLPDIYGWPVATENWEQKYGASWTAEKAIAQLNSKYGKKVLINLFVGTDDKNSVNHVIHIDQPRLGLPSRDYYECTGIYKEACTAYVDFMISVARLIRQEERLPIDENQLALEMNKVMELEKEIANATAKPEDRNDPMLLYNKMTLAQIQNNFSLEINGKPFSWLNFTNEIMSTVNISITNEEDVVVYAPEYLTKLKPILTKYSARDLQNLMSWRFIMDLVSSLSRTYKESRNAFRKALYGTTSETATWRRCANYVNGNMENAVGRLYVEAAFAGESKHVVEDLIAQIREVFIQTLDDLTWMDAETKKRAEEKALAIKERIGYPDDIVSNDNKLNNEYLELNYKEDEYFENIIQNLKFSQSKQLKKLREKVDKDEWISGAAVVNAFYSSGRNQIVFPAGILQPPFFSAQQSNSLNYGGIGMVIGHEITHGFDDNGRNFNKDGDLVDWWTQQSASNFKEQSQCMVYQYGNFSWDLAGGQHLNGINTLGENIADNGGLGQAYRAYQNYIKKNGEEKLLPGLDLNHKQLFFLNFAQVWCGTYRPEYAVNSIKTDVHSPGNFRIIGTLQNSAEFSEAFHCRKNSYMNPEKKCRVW

## CCCCCCCCCCCC(=O)N[C@@H](CCC(=O)NCCOCCOCC(=O)NCCOCCOCC(=O)NCCCC[C@H](NC(=O)[C@H](C)NC(=O)[C@@H](NC(=O)[C@H](Cc1ccccc1)NC(=O)[C@H](CCC(=O)O)NC(=O)[C@](C)(CCCCN)NC(=O)[C@H](C)NC(=O)[C@H](C)NC(=O)[C@H](CCC(=O)O)NC(=O)CNC(=O)[C@H](CCC(=O)O)NC(=O)[C@H](CCCCNC(=O)COCCOCCNC(=O)COCCOCCNC(=O)CC[C@H](NC(=O)CCCCCCCCCCC)C(=O)O)NC(=O)[C@H](Cc1ccc(O)cc1)NC(=O)[C@H](CO)NC(=O)[C@](C)(CO)NC(=O)[C@@H](NC(=O)[C@H](CC(=O)O)NC(=O)[C@H](CO)NC(=O)[C@@H](NC(=O)[C@](C)(Cc1ccccc1)NC(=O)[C@H](CO)NC(=O)CNC(=O)[C@H](CCC(=O)O)NC(=O)C(C)(C)NC(=O)[C@@H](N)Cc1c[nH]cn1)[C@@H](C)O)C(C)C)[C@@H](C)CC)C(=O)N[C@H](C(=O)N[C@H](C(=O)N[C@@H](CCC(=O)O)C(=O)NCC(=O)NCC(N)=O)C(C)C)C(C)C)C(=O)O [compound 269] (H-H[Aib]EGS[αMeF]TSDV[αMeS]SYK([AEEA-AEEA-γGlu-Lauroyl])EGEAA[αMeK]EFIAK([AEEA-AEEA-γGlu-Lauroyl])VVEGG-NH2; N-terminus assumed)
Recombinant Neprilysin
  Percentage remaining peptide (AUC at specified time-point by RP-HPLC) upon incubation with neprilysin, t = 0: 100%
[1]
  Percentage remaining intact peptide (AUC by RP-HPLC) upon incubation with pepsin: 100%
[2]; [11]
  EC50: ≥ 22.8 nM
[2]; [12]
  EC50: ≥ 22.8 nM
[3]
  Percentage remaining intact peptide (AUC by RP-HPLC) upon incubation with trypsin: 100%
[4]
  Percentage remaining intact peptide (AUC by RP-HPLC) upon incubation with FASSIF activated with 100 μg/mL enterokinase: 100%
[5]
  remaining at 0.5 h: 97.1%
  remaining at 1 h: 95.8%
  remaining at 2 h: 96%
  remaining at 4 h: 94.2%
  remaining at 8 h: 92.6%
  remaining at 24 h: 89.4%
[6]
  Percentage remaining intact peptide (AUC by RP-HPLC) upon incubation with α-chymotrypsin: 100%
[7]; [13]
  EC50: ≥ 22.8 nM
[7]; [14]
  EC50: ≥ 22.8 nM

## CCCCCCCCCCCC(=O)N[C@@H](CCC(=O)NCCOCCOCC(=O)NCCOCCOCC(=O)NCCCC[C@H](NC(=O)[C@H](C)NC(=O)[C@@H](NC(=O)[C@H](CCCC)NC(=O)[C@H](CCC(=O)O)NC(=O)[C@](C)(CCCCN)NC(=O)[C@H](C)NC(=O)[C@H](C)NC(=O)[C@H](CCC(=O)O)NC(=O)CNC(=O)[C@H](CCC(=O)O)NC(=O)[C@H](CC(C)C)NC(=O)[C@H](CCCCNC(=O)COCCOCCNC(=O)COCCOCCNC(=O)CC[C@H](NC(=O)CCCCCCCCCCC)C(=O)O)NC(=O)[C@H](CO)NC(=O)[C@](C)(CO)NC(=O)[C@@H](NC(=O)[C@H](CC(=O)O)NC(=O)[C@H](CO)NC(=O)[C@@H](NC(=O)[C@](C)(Cc1ccccc1)NC(=O)[C@H](CO)NC(=O)CNC(=O)[C@H](CCC(=O)O)NC(=O)C(C)(C)NC(=O)[C@@H](N)Cc1c[nH]cn1)[C@@H](C)O)C(C)C)[C@@H](C)CC)C(=O)N[C@H](C(=O)N[C@H](C(=O)N[C@@H](CCC(=O)O)C(=O)NCC(=O)NCC(N)=O)C(C)C)C(C)C)C(=O)O [compound 407] (H-H[Aib]EGS[αMeF]TSDV[αMeS]SK([AEEA-AEEA-γGlu-Lauroyl])LEGEAA[αMeK]E[Nle]IAK([AEEA-AEEA-γGlu-Lauroyl])VVEGG-NH2; N-terminus assumed)
[2]; [11]
  EC50: ≥ 21.5 nM
[2]; [12]
  EC50: ≥ 21.5 nM
[8]; mean of n1 and n2, read-out: Primary assay EC50 Mean pM GLP-1R
  EC50: 2 pM
[8]; replicate n2, read-out: Primary assay EC50 GLP-1R n2
  EC50: 2.01 pM
[9]; t = 5 m
  remaining at 5 min, […]: 86.2%
[9]; t = 10 m
  remaining at 10 min, […]: 72.9%
[9]; t = 15 m
  remaining at 0.25 h, […]: 60.3%
[9]; t = 30 m
  remaining at 0.5 h, […]: 36.3%
[9]; t = 1 h
  remaining at 1 h, […]: 16.2%
[9]; t = 2 h
  remaining at 2 h, […]: 2.1%
[10]
  Percentage remaining intact peptide (AUC by RP-HPLC) upon incubation with fasted-state simulated intestinal fluid (FASSIF/P): 100%
[7]; [13]
  EC50: ≥ 21.5 nM
[7]; [14]
  EC50: ≥ 21.5 nM
